{
  "source": "patent US20060129225A1",
  "about": "“Device for the delivery of a cardioprotective agent to ischemic reperfused myocardium” (priority 2004, published 2006)",
  "key": {"[1]": {"assay": "Liquid formulations with Vitamin E TPGS, ethanol and water (HPLC assay, visual observation)", "type": "physicochemical", "settings": "ethanol less than two percent, water"}, "[2]": {"system": "human coronary artery smooth muscle cells", "assay": "Anti-proliferative activity in synchronized cultured human coronary artery smooth muscle cells stimulated with two percent fetal bovine serum", "type": "cell-based", "from_the_text": "(§1) The multiple curves represent various concentrations of topotecan ranging from zero to three hundred nanomolar concentrations.\n(§2) The multiple curves represent various concentrations of etoposide ranging from zero to eight hundred nanomolar concentrations.\nThe multiple curves represent various concentrations of Panzem® ranging from zero to 100 micromolar concentrations."}, "cell viability": {"system": "cell viability", "assay": "Cell viability assay", "type": "cell-based", "from_the_text": "as §1, §2"}, "[3]": {"system": "human coronary artery smooth muscle cell proliferation", "assay": "In vitro cell culture study of coronary artery smooth muscle cell proliferation", "type": "cell-based", "from_the_text": "FIG. 51 is a graph of the inhibition of coronary artery smooth muscle cells by trichostatin A in a cell culture study."}, "tumor cell lines": {"system": "tumor cell lines", "settings": "cited from earlier work"}, "[4]": {"system": "human coronary artery smooth muscle cells", "assay": "Anti-proliferative activity in non-synchronized cultured human coronary artery smooth muscle cells stimulated with two percent fetal bovine serum", "type": "cell-based", "from_the_text": "The multiple curves represent various concentrations of mycophenolic acid ranging from zero to one thousand nanomolar concentrations.\nFIG. 58 illustrates, in graphical format, the anti-proliferative activity of cladribine in non-synchronized cultured human coronary artery smooth muscle cells stimulated with two percent fetal bovine serum.\nThe multiple curves represent various concentrations of cladribine ranging from zero to nine hundred nanomolar concentrations."}, "[5]": {"assay": "In vivo release kinetics from polymeric stent coatings in porcine pharmacokinetics studies"}, "[6]": {"system": "human smooth muscle cells", "assay": "PDGF AB-stimulated proliferation of human smooth muscle cells (cell count, day six)", "type": "cell-based", "settings": "from the IC50 values", "experimental": "To assess the ability of cladribine to prevent cell proliferation, human smooth muscle or endothelial cells (Clonetics, Walkersville, Md.) were seeded at a density of 2000 cells/cm^2 (approximately 3600 cells/well) into each well of 12-well plates and cultured with 1.5 ml of growth medium containing five percent fetal calf serum (FCS). After twenty-four hours, the growth medium was changed and fresh medium containing 10 ng/ml platelet-derived growth factor AB (PDGF AB; LIFE Technologies), as well as various concentrations of cladribine (0.001-10,000 nM) were added with triplicate wells. Medium was replaced with fresh cladribine-containing medium after three days. On day six, cells were detached by trypsinization to yield a cell suspension, lightly centrifuged to pellet and then counted manually using a Neubauer hemocytometer system. Cell viability was assessed by trypan blue exclusion."}, "[7]": {"system": "human coronary artery smooth muscle cell survival", "assay": "MTS cytotoxicity assay", "type": "cell-based", "settings": "concentrations up to 30,000.00 nanomolar (tested from 6.6 nanomolar)", "from_the_text": "Typically, a control is utilized to determine baseline toxicity."}},
  "data": [
    {"smiles": "CO[C@H]1C[C@@H]2CC[C@@H](C)[C@@](O)(O2)C(=O)C(=O)N2CCCC[C@H]2C(=O)O[C@H]([C@H](C)C[C@@H]2CC[C@@H](OC(=O)C(C)(CO)CO)[C@H](OC)C2)CC(=O)[C@H](C)/C=C(\\C)[C@@H](O)[C@@H](OC)C(=O)[C@H](C)C[C@H](C)/C=C/C=C/C=C/1C", "note": "[CCI-779]", "values": [
      {"measurement": "concentration of CCI-779 in the final solution (HPLC assay)", "setting": "[1]", "result": 15, "unit": "mg/mi"}
    ]},
    {"smiles": "CC[C@@]1(O)C(=O)OCc2c1cc1n(c2=O)Cc2cc3c(CN(C)C)c(O)ccc3nc2-1", "note": "[topotecan]", "values": [
      {"measurement": "effect of addition to cells treated with rapamycin on percent inhibition", "setting": "[2]; topotecan 18.8 to 300 nanomolar", "result": "increases the percent inhibition of rapamycin alone"},
      {"measurement": "cytotoxicity in a separate cell viability assay", "setting": "cell viability; concentrations up to one micromolar", "result": "non-cytotoxic"}
    ]},
    {"smiles": "CC(/C=C/C(=O)NO)=C\\[C@@H](C)C(=O)c1ccc(N(C)C)cc1", "note": "[trichostatin A]", "values": [
      {"measurement": "IC50", "setting": "[3]; human coronary artery smooth muscle cells, read-out: anti-proliferative IC50", "result": "~6", "unit": "nM"},
      {"measurement": "inhibition of human coronary artery smooth muscle cell proliferation", "setting": "[3]; in vitro cell culture", "result": "completely inhibit"},
      {"measurement": "anti-proliferative IC50", "setting": "tumor cell lines", "result": "low nM range"}
    ]},
    {"smiles": "COc1c(C)c2c(c(O)c1C/C=C(\\C)CCC(=O)O)C(=O)OC2", "note": "[mycophenolic acid]", "values": [
      {"measurement": "effect on the anti-proliferative rapamycin dose response curve", "setting": "[4]; mycophenolic acid zero to one thousand nanomolar added to cells treated with rapamycin", "result": "potentiates the anti-proliferative activity of rapamycin"},
      {"measurement": "in vivo release from coating compared with rapamycin", "setting": "[5]; EVA/BMA basecoat with 180 μg rapamycin and 180 μg mycophenolic acid, no, 100 or 200 μg BMA topcoat, porcine", "result": "elutes more completely over a shorter duration than the rapamycin"}
    ]},
    {"smiles": "Nc1nc(Cl)nc2c1ncn2[C@H]1C[C@H](O)[C@@H](CO)O1", "note": "[cladribine, 2-chlorodeoxyadenosine]", "values": [
      {"measurement": "effect of addition to cells treated with rapamycin on percent inhibition", "setting": "[4]; cladribine 56.25 to 900 nanomolar", "result": "increases the percent inhibition of rapamycin alone"},
      {"measurement": "inhibition of human coronary artery smooth muscle cell proliferation", "setting": "[4]; non-synchronized cells, two percent fetal bovine serum", "result": "completely inhibits"},
      {"measurement": "potency as inhibitor of smooth muscle cells relative to endothelial cells", "setting": "[6]", "result": "approximately twice"},
      {"measurement": "in vivo elution compared with rapamycin", "setting": "[5]; EVA/BMA basecoat with rapamycin and cladribine, 200 μg BMA topcoat, Bx Velocity stents, Yorkshire pigs", "result": "elutes more rapidly than rapamycin"},
      {"measurement": "in vivo elution from coating over time", "setting": "[5]; PVDF/HFP (85/15) basecoat 1800 μg with thirty percent cladribine, 300 μg topcoat, Bx Velocity stents, Yorkshire pig, after the first day", "result": "levels off significantly"}
    ]},
    {"smiles": "COc1cc2c(cc1O)CC[C@@H]1[C@@H]2CC[C@]2(C)[C@@H](O)CC[C@@H]12", "note": "[Panzem®, 2-methoxyestradiol]", "values": [
      {"measurement": "effect of addition to cells treated with rapamycin on percent of inhibition", "setting": "[2]; Panzem 0.813 to 100 micromolar", "result": "increases the percent of inhibition of rapamycin alone"},
      {"measurement": "inhibition of human coronary artery smooth muscle cell proliferation in vitro", "setting": "[2]; Panzem alone, synchronized cells", "result": "extremely effective inhibitor"},
      {"measurement": "human coronary artery smooth muscle cell survival (MTS assay)", "setting": "[7]", "result": "do not reduce"}
    ]},
    {"smiles": "COc1cc([C@@H]2c3cc4c(cc3[C@@H](O[C@@H]3O[C@@H]5CO[C@@H](C)O[C@H]5[C@H](O)[C@H]3O)[C@H]3COC(=O)[C@H]23)OCO4)cc(OC)c1O", "note": "[etoposide]", "values": [
      {"measurement": "effect of addition to cells treated with rapamycin on percent inhibition", "setting": "[2]; etoposide 255.7 to eight hundred nanomolar", "result": "increases the percent inhibition of rapamycin alone"},
      {"measurement": "cytotoxicity in a cell viability assay", "setting": "cell viability; concentrations up to ten micromolar", "result": "non-cytotoxic"}
    ]},
    {"smiles": "CO[C@H]1C[C@@H]2CC[C@@H](C)[C@@](O)(O2)C(=O)C(=O)N2CCCC[C@H]2C(=O)O[C@H]([C@H](C)C[C@@H]2CC[C@@H](O)[C@H](OC)C2)CC(=O)[C@H](C)/C=C(\\C)[C@@H](O)[C@@H](OC)C(=O)[C@H](C)C[C@H](C)/C=C/C=C/C=C/1C", "note": "[rapamycin]", "values": [
      {"measurement": "in vivo release rate compared with mycophenolic acid", "setting": "[5]; PVDF basecoat six hundred micrograms, PVDF topcoat two hundred micrograms, porcine", "result": "slower release rate than that of mycophenolic acid"}
    ]}
  ]
}
